Test results published in PubChem BioAssay (NCI).
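How tested: cells in 96-well plates exposed to compound for 48 hours at five concentrations. Here, GI50 denotes the concentration required for 50% inhibition of growth. TGI is the concentration that stops growth completely.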

What was measured:
Experiment in all cases: NCI tumour cell line growth inhibition, 48 h
[1] = tested on: PC-3 prostate
[2] = tested on: MOLT-4 leukemia
[3] = tested on: HOP-92 NSCLC
[4] = tested on: SK-MEL-2 melanoma
[5] = tested on: HOP-62 NSCLC
[6] = tested on: HCC-2998 colon
[7] = tested on: IGROV1 ovarian
[8] = tested on: COLO 205 colon
[9] = tested on: HL-60(TB) leukemia
[10] = tested on: SF-268 CNS
[11] = tested on: BT-549 breast
[12] = tested on: UO-31 renal
[13] = tested on: SK-MEL-28 melanoma
[14] = tested on: EKVX NSCLC
[15] = tested on: HCT-116 colon
[16] = tested on: U251 CNS
[17] = tested on: NCI-H23 lung
[18] = tested on: DU-145 prostate
[19] = tested on: TK-10 renal
[20] = tested on: UACC-257 melanoma
[21] = tested on: SW-620 colon
[22] = tested on: MCF7 breast
[23] = tested on: ACHN renal
[24] = tested on: NCI-H226 lung
[25] = tested on: UACC-62 melanoma
[26] = tested on: SF-295 CNS
[27] = tested on: A498 renal
[28] = tested on: KM12 colon
[29] = tested on: CCRF-CEM leukemia
[30] = tested on: CAKI-1 renal
[31] = tested on: SK-MEL-5 melanoma
[32] = tested on: RPMI-8226 leukemia
[33] = tested on: LOX IMVI melanoma
[34] = tested on: HS 578T breast
[35] = tested on: NCI-H460 lung
[36] = tested on: OVCAR-8 ovarian
[37] = tested on: OVCAR-5 ovarian
[38] = tested on: HT29 colon
[39] = tested on: HCT-15 colon
[40] = tested on: SK-OV-3 ovarian
[41] = tested on: SR leukemia
[42] = tested on: SF-539 CNS
[43] = tested on: T-47D breast
[44] = tested on: SNB-19 CNS
[45] = tested on: OVCAR-3 ovarian
[46] = tested on: M14 melanoma
[47] = tested on: A549 NSCLC
[48] = tested on: 786-0 renal
[49] = tested on: OVCAR-4 ovarian
[50] = tested on: NCI-H522 lung
[51] = tested on: MDA-MB-231 breast
[52] = tested on: NCI/ADR-RES ovarian
[53] = tested on: SNB-75 CNS
[54] = tested on: MDA-MB-435
[55] = tested on: SN12C renal
[56] = tested on: K-562 leukemia
[57] = tested on: RXF 393 renal

CCN1/C(=C/C=C/C=C/c2sc3ccccc3[n+]2CC)Sc2ccccc21
GI50 [1]: 243 nM
TGI [1]: 1390 nM
GI50 [2]: 234 nM
TGI [2]: 1020 nM
GI50 [3]: 320 nM
TGI [3]: 3270 nM
GI50 [4]: 979 nM
TGI [4]: 2720 nM
GI50 [5]: 420 nM
TGI [5]: 1540 nM
GI50 [6]: 381 nM
TGI [6]: 1690 nM
GI50 [7]: 503 nM
TGI [7]: 2140 nM
GI50 [8]: 191 nM
TGI [8]: 347 nM
GI50 [9]: 143 nM
TGI [9]: 656 nM
GI50 [10]: 431 nM
TGI [10]: 1620 nM
GI50 [11]: 213 nM
TGI [11]: 1180 nM
GI50 [12]: 1660 nM
TGI [12]: 4400 nM
GI50 [13]: 720 nM
TGI [13]: 2750 nM
GI50 [14]: 122 nM
TGI [14]: 798 nM
GI50 [15]: 181 nM
TGI [15]: 828 nM
GI50 [16]: 234 nM
TGI [16]: 1540 nM
GI50 [17]: 164 nM
TGI [17]: 2330 nM
GI50 [18]: 394 nM
TGI [18]: 1730 nM
GI50 [19]: 472 nM
TGI [19]: 3970 nM
GI50 [20]: 475 nM
TGI [20]: 2940 nM
GI50 [21]: 379 nM
TGI [21]: 1840 nM
GI50 [22]: 290 nM
TGI [22]: 1300 nM
GI50 [23]: 566 nM
TGI [23]: 3280 nM
GI50 [24]: 344 nM
TGI [24]: 2990 nM
GI50 [25]: 512 nM
TGI [25]: 1880 nM
GI50 [26]: 153 nM
TGI [26]: 508 nM
GI50 [27]: 943 nM
TGI [27]: 4120 nM
GI50 [28]: 378 nM
TGI [28]: 1400 nM
GI50 [29]: 353 nM
TGI [29]: > 21800 nM
GI50 [30]: 376 nM
TGI [30]: 2290 nM
GI50 [31]: 314 nM
TGI [31]: 1420 nM
GI50 [32]: 149 nM
TGI [32]: 2210 nM
GI50 [33]: 296 nM
TGI [33]: 1600 nM
GI50 [34]: 272 nM
TGI [34]: 987 nM
GI50 [35]: 200 nM
TGI [35]: 1060 nM
GI50 [36]: 398 nM
TGI [36]: 2580 nM
GI50 [37]: 639 nM
TGI [37]: 6050 nM
GI50 [38]: 230 nM
TGI [38]: 1200 nM
GI50 [39]: 1220 nM
TGI [39]: 4700 nM
GI50 [40]: 359 nM
TGI [40]: 1130 nM
GI50 [41]: 30.4 nM
TGI [41]: 1020 nM
GI50 [42]: 377 nM
TGI [42]: 2490 nM
GI50 [43]: 101 nM
TGI [43]: 669 nM
GI50 [44]: 350 nM
TGI [44]: 1890 nM
GI50 [45]: 331 nM
TGI [45]: 1180 nM
GI50 [46]: 416 nM
TGI [46]: 1490 nM
GI50 [47]: 332 nM
TGI [47]: 2590 nM
GI50 [48]: 516 nM
TGI [48]: 1710 nM
GI50 [49]: 261 nM
TGI [49]: 2510 nM
GI50 [50]: 281 nM
TGI [50]: 1510 nM
GI50 [51]: 302 nM
TGI [51]: 1480 nM
GI50 [52]: 2990 nM
TGI [52]: 16700 nM
GI50 [53]: 243 nM
TGI [53]: 1470 nM
GI50 [54]: 314 nM
TGI [54]: 1310 nM
GI50 [55]: 327 nM
TGI [55]: 1760 nM
GI50 [56]: 65.2 nM
TGI [56]: 512 nM
GI50 [57]: 805 nM
TGI [57]: 2530 nM
